Experimental data: ChEMBL document CHEMBL1157281, “Antineoplastic agents. 400. Synthesis of the Indian Ocean marine sponge cyclic heptapeptide phakellistatin 2” (1999)
Converted amounts (≈) assume the structure as drawn. Residues, ends and D or L forms follow the SMILES beside them.

Test system: P388
Experiment: Growth inhibition of mouse P388 cells
Assay type: functional
Details: read-out: ED50 (the source's name)

EC50	SMILES
24 µg/mL	CC[C@H](C)[C@@H]1NC(=O)[C@@H]2CCCN2C(=O)[C@H](Cc2ccccc2)NC(=O)[C@@H]2CCCN2C(=O)[C@H](Cc2ccc(O)cc2)NC(=O)[C@@H]2CCCN2C(=O)[C@H]([C@@H](C)CC)NC1=O.Cl [PHAKELLISTATIN 2 (SYNTHETIC)] (cyclo(FPIIPYP))
0.34 µg/mL (≈ 0.411 µM)	CC[C@H](C)[C@@H]1NC(=O)[C@@H]2CCCN2C(=O)[C@H](Cc2ccccc2)NC(=O)[C@@H]2CCCN2C(=O)[C@H](Cc2ccc(O)cc2)NC(=O)[C@@H]2CCCN2C(=O)[C@H]([C@@H](C)CC)NC1=O [PHAKELLISTATIN 2] (cyclo(FPIIPYP))
